The subject of one data set is rats. The data set can be described thus: "Antabuse-alcohol" reaction on rats by tonometry (diastolic blood pressure after ethanol). The format is in vivo, rat. To be noted: N = 3, salt water 92.5 ± 5.2. The method, then:
Method of assessing the "Antabuse®-alcohol" reaction on rats by tonometry
These measurements were performed on a selected compound. The substance employed is diethyl thiocarbamic acid-S-methyl ester (referred to as DTSM hereinafter).
Male rats having a body weight of 300-400 g were anaesthetised with urethane 1.25 g/kg i.p. On a group of 4 rats, a catheter filled with heparin-salt water was inserted by operative surgery in one carotid artery, and the blood pressure was recorded before and after intraperitoneal injection of ethanol (1 g/kg, 10 ml/kg of 10% v/v ethanol in water). Two other groups of 3 rats each were treated intraperitoneally with DTSM for 1 and 2 hours, respectively, whereupon ethanol (1 g/kg, 10 ml/kg of 10% v/v ethanol in water) was injected intraperitoneally. The blood pressure was measured before the injection of ethanol and for 30 min. after injection, after which time the blood pressure has usually stabilized itself (Hellstrom and Tottmar: Pharmacology Biochemistry and Behaviour 1982:17:1103).

The target of data set [1] is T1, aldehyde dehydrogenase (low Km) (Rattus norvegicus, UniProt P11884).
T1 construct: The aldehyde dehydrogenase activity in the homogenate after incubation for 1 h; from tissue; host or cells: rat liver homogenate
T1 sequence (P11884 20-519): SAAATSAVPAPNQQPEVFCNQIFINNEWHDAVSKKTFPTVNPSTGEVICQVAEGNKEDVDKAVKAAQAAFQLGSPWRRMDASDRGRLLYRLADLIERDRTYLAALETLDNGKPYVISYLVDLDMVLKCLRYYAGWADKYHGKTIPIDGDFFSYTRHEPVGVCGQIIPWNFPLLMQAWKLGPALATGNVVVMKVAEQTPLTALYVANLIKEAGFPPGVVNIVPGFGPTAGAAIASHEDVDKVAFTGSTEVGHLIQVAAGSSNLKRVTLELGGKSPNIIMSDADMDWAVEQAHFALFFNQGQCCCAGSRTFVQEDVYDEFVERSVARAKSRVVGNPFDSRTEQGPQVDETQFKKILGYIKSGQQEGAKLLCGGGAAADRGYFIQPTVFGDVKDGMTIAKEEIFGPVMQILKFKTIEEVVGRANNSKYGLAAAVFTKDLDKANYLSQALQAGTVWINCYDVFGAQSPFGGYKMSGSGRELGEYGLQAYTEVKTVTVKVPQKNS
In words: In vitro inhibition of aldehyde dehydrogenase of low Km, rat liver homogenate. It is filed as biochemical. To be noted: 1 h incubation, 2760 μmol/liter, water ref. = 100, double determinations, 4 rats, read-out: Residual activity of aldehyde dehydrogenase (Low Km in % of ref. value). The method, then:
(§1) METHOD FOR INHIBITING ALDEHYDE DEHYDROGENASE
(§2) Fractionation of rat liver homogenates was performed according to Tottmar et al, Biochem. J. 1973:135:577. The aldehyde dehydrogenase activity in the homogenate after incubation for 1 h with different thiocarbamic acid esters (see Table 1) was measured spectrophotometrically in 50 μl aliquots by following the reduction of NAD to NADH at 340 nm at 37° C. in the presence of the substrate acetaldehyde […], as described by Tottmar and Marcher (Acta Pharmacol. et Toxicol. 1976:38:366).
(§3) In vitro inhibition of aldehyde dehydrogenase of low Km
(§4) The values are X±SD of double determinations, on the one hand in homogenates from 4 rats and, on the other hand, in bovine liver (last two values in Table 1).
(§5) The concentration=2760 μmol/liter for all compounds, except the last two compounds for which the concentration was 3.0 mmol/liter.

The next data set has as its system patients. To be noted: person takes disulfiram and then drinks alcohol; cited from earlier work.
The conditions of data set [2]: cited from earlier work.
For data set [3], the system named is acetaldehyde dehydrogenase. As to conditions: cited from earlier work.
The conditions of data set [4]: cited from earlier work. The source holds these as a separate data set.
Data set [5] has as its system aldehyde dehydrogenase (low Km). The data set can be described thus: In vitro inhibition of aldehyde dehydrogenase, measured on bovine liver. The format is biochemical. To be noted: 3.0 mmol/liter, water ref. = 100, double determinations, 60 min. How it is done: as §1, §2, §3
*Measured on bovine liver
as §4, §5

For the molecule `CCN(CC)C(=O)SC` [DTSM, diethyl thiocarbamic acid-S-methyl ester], the “Diastolic blood pressure of rats 30 min. after ethanol injection, % of own ref. value (X ± SD)” value in the data set with rats (DTSM 30 mg/kg i.p. 1 hour before ethanol 1 g/kg i.p., p <0.01) was 77.1 ± 3.6 % of own ref. value; with rats (DTSM 30 mg/kg i.p. 2 hours before ethanol 1 g/kg i.p., p <0.05), 57.6 ± 28 % of own ref. value. Besides, the remaining activity at 2760 µM in data set [1] stood at 73%.

In the case of `CCCN(CCC)C(=O)SC`, in data set [1], the remaining activity at 2760 µM came to 11%. As for `CCN(CC)C(=S)SSC(=S)N(CC)CC` [disulfiram], the disulfiram/alcohol reaction entry in the data set with patients was “nausea, a ruddy complexion, palpitation of the heart, low blood pressure, vomiting, and a pulsating headache”. Further, the “t 1/2 of metabolism in blood” value in data set [2] is given as 4 min. Moreover, in data set [3], the “blocking of liver enzyme acetaldehyde dehydrogenase” value is given as “irreversible blocking”. Further, the solubility in water entry in data set [4] was “very sparingly soluble in water”. For `COC(=O)N1CCCCC1` [1-piperidine carbamic acid-methyl ester], in data set [5], the “Residual activity of aldehyde dehydrogenase (Low Km in % of ref. value)” value is 76 % of ref. value. Regarding `CSC(=O)Nc1ccccc1`, the remaining activity at 2760 µM in data set [1] came out at 8%. For the molecule `CCN(CC)C(=O)OC` [Diethyl carbamic acid-methyl ester], in data set [5], the “Residual activity of aldehyde dehydrogenase (Low Km in % of ref. value)” value is given as 87 % of ref. value. As for `CSC(=O)NCCc1ccc(O)cc1`, the remaining activity at 2760 µM in data set [1] was 10%.

As to `CCSC(=O)N(CC)CC` [X = CH2 CH3, R = CH2 CH3, R1 = CH2 CH3, diethyl thiocarbamic acid-S-ethyl ester], in data set [1], the remaining activity at 2760 µM was found to be 8%. On the same count and under the same terms, in the case of `CSC(=O)N(C)C` [X = CH3, R = CH3, R1 = CH3, dimethyl thiocarbamic acid-S-methyl ester] it was 16%; in that of `CSC(=O)NCCc1ccccc1`, 0%. On the same count and under the same terms, in the case of `CSC(=O)N1CCCCC1` it was 16%; in that of `CSC(=O)N1CCCC1`, 9%.
